# Experimental data: article PMC8470058 (Antibiotics, 2021)
# Legend:
# [1] = both, human, in vivo
# Procedure: Researchers conducted the prospective observational study and collected the hospital information and laboratory information at one tertiary hospital from January 2018 to December 2019. […] This study was approved by the Ethics Committee of The Second […] Hospital of Central South University with an approved NO. yxlb-lays-2018012. Venous blood samples (2 mL) were collected into anticoagulant tubes. […] Monitoring continued every 3 days. […] The two-dimensional separation conditions consisted of FRO C18 (100 mm × 3.0 mm, 5 μm, ANAX) and ASTON HD C18 (150 mm × 4.6 mm, 5 μm, ANAX) with the same flow rate 1.0 mL/min. […] This laboratory participated in the annual national external quality assessment scheme. […] The Child-Pugh class and MELD score were calculated based on previous criteria. The Pearson correlation and nonparametric Spearman correlation were used to study the relationship between clinical or laboratory data and Cmins during the therapy, according to the type of variables. […] The Cmins measured after withdrawal or lack of the corresponding key values of clinical or laboratory data were excluded in pairs in the bivariate correlation analysis or in rows in the multiple linear regression. For the regression analysis, the genotype of CYP2C19 was set as a dummy variable.
# [2] = Voriconazole-related adverse events in Child–Pugh class C patients; type: in vivo, human
# Text: Forty-three CP-C Asian patients were eligible to participate in the study (Figure 1a). The female-to-male ratio was 4/39. The mean patient age and weight were 49.35 ± 11.65 years (range, 32 to 89 years) and 61.27 ± 12.87 kg (range, 36 to 99 kg). […] The median sampling time of C0 was 5 days (interquartile range (IQR), 3 to 5 days; range, 3 to 11 days).
# Researchers conducted the prospective observational study and collected the hospital information and laboratory information at one tertiary hospital from January 2018 to December 2019. […] The administration regimen is mainly under empirical treatment regimens, and the adjustment is generally based on the results of TDM. This study was approved by the Ethics Committee of The Second XiangYa Hospital of Central South University with an approved NO. yxlb-lays-2018012.
# Data were extracted from medical records and laboratory information systems, including voriconazole-related information (Cmins, timing, amount, route), demographics, laboratory data, and concomitant medications (antimicrobial agents, CYP2C19 inducers, and inhibitors). The first trough concentration, the repeated measured ones and the last one of patients were recorded as C0, C1, Css, respectively. The Child–Pugh class and MELD score were calculated based on previous criteria.
# [3] = cited from earlier work
# [4] = CP-C patients in ICU; cited from earlier work
compound,measurement,setting,value
C[C@@H](c1ncncc1F)[C@](O)(Cn1cncn1)c1ccc(F)cc1F [voriconazole],Decrease of Cmin in male patients compared to the female,[1],1.651 mg/L
same,Decrease of concentration with a one-unit increase in PTA count,[1],0.035 mg/L
same,Patients with targeted C0 reaching supratherapeutic levels with no adjusted daily dose,[1],25.8%
same,Patients with adverse events identified as voriconazole related,"[2]; 20 of 43 patients, dizziness, hallucinations, visual disturbance",46.5%
same,Median duration from voriconazole initiation to onset of adverse events,"[2]; range, 1 to 12 days",2 days
same,Oral bioavailability,[3],91.6%
same,Change of terminal half-life (t1/2),[4],increased about five times
same,Median terminal t1/2,[4],60.7 h
